# The supplement of paper PMC10307832
# Columns and labels:
# Test in all cases: relative viability (nuclei count vs DMSO), 5 days (fraction); higher = more cells survive
# [1] = compound: C[C@@H](C(=O)N[C@@H](C1CCCCC1)C(=O)N2CCC[C@H]2C(=O)N[C@@H]3[C@@H](CC4=CC=CC=C34)OCC#CC#CCO[C@@H]5CC6=CC=CC=C6[C@@H]5NC(=O)[C@@H]7CCCN7C(=O)[C@H](C8CCCCC8)NC(=O)[C@H](C)NC)NC [AZD5582] + CS(=O)(=O)N1CCN(Cc2cc3nc(-c4cccc5[nH]ncc45)nc(N4CCOCC4)c3s2)CC1 [Pictilisib] (partner 1 µM)
# Method in brief: (§1)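 Lung cancer cell lines in 1536-well plates got either a single drug or a fixed anchor-drug dose together with five library-drug doses (not always all listed) in √10 steps, by pin tool, on the day after seeding. Nuclei were counted after 5 days, and relative viability is the treated-to-vehicle ratio of nuclei counts. Values are medians of duplicate plates.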
# [2] = compound: C[C@@H](C(=O)N[C@@H](C1CCCCC1)C(=O)N2CCC[C@H]2C(=O)N[C@@H]3[C@@H](CC4=CC=CC=C34)OCC#CC#CCO[C@@H]5CC6=CC=CC=C6[C@@H]5NC(=O)[C@@H]7CCCN7C(=O)[C@H](C8CCCCC8)NC(=O)[C@H](C)NC)NC [AZD5582] + C[C@@H](Oc1cc(-c2cnn(C3CCNCC3)c2)cnc1N)c1c(Cl)ccc(F)c1Cl [Crizotinib] (partner 1 µM)
# Method in brief: as §1
# [3] = compound: C[C@@H](C(=O)N[C@@H](C1CCCCC1)C(=O)N2CCC[C@H]2C(=O)N[C@@H]3[C@@H](CC4=CC=CC=C34)OCC#CC#CCO[C@@H]5CC6=CC=CC=C6[C@@H]5NC(=O)[C@@H]7CCCN7C(=O)[C@H](C8CCCCC8)NC(=O)[C@H](C)NC)NC [AZD5582] + COc1cccc2cc(-c3nc([C@H]4CC[C@H](C(=O)O)CC4)n4ncnc(N)c34)[nH]c12 [OSI-027] (partner 0.5 µM)
# Method in brief: as §1
# [4] = compound: C[C@@H](C(=O)N[C@@H](C1CCCCC1)C(=O)N2CCC[C@H]2C(=O)N[C@@H]3[C@@H](CC4=CC=CC=C34)OCC#CC#CCO[C@@H]5CC6=CC=CC=C6[C@@H]5NC(=O)[C@@H]7CCCN7C(=O)[C@H](C8CCCCC8)NC(=O)[C@H](C)NC)NC [AZD5582] + C[C@]1(O)C[C@@H](c2nc(-c3ccc4ccc(-c5ccccc5)nc4c3)c3c(N)nccn32)C1 [Linsitinib] (partner 1 µM)
# Method in brief: as §1
# [5] = compound: C[C@@H](C(=O)N[C@@H](C1CCCCC1)C(=O)N2CCC[C@H]2C(=O)N[C@@H]3[C@@H](CC4=CC=CC=C34)OCC#CC#CCO[C@@H]5CC6=CC=CC=C6[C@@H]5NC(=O)[C@@H]7CCCN7C(=O)[C@H](C8CCCCC8)NC(=O)[C@H](C)NC)NC [AZD5582] + Cc1cc(Nc2cc(N3CCN(C)CC3)nc(Sc3ccc(NC(=O)C4CC4)cc3)n2)n[nH]1 [Tozasertib] (partner 0.1 µM)
# Method in brief: as §1
Cell Line,relative viability ([1]; first compound 0.001581 µM),relative viability ([1]; first compound 0.005 µM),relative viability ([1]; first compound 0.01581 µM),relative viability ([1]; first compound 0.05 µM),relative viability ([2]; first compound 0.001581 µM),relative viability ([2]; first compound 0.005 µM),relative viability ([2]; first compound 0.01581 µM),relative viability ([2]; first compound 0.05 µM),relative viability ([3]; first compound 0.001581 µM),relative viability ([3]; first compound 0.005 µM),relative viability ([3]; first compound 0.01581 µM),relative viability ([3]; first compound 0.05 µM),relative viability ([4]; first compound 0.001581 µM),relative viability ([4]; first compound 0.005 µM),relative viability ([4]; first compound 0.01581 µM),relative viability ([4]; first compound 0.05 µM),relative viability ([5]; first compound 0.001581 µM),relative viability ([5]; first compound 0.005 µM),relative viability ([5]; first compound 0.01581 µM),relative viability ([5]; first compound 0.05 µM)
201T,0.697,0.733,0.703,0.808,1.09,1.12,1.04,1.25,0.721,0.831,0.675,0.492,1.03,1.18,0.995,1.27,1.01,1.07,0.961,1.13
A549,0.474,0.477,0.585,0.505,0.504,0.923,0.667,0.826,,,,,0.545,0.768,0.444,0.726,,,,
A-427,0.567,0.671,0.734,0.587,0.623,0.751,0.97,0.618,0.341,0.44,0.414,0.31,1.01,1.04,1.12,0.955,0.201,0.198,0.221,0.167
ABC-1,0.586,0.93,0.478,0.679,0.737,0.863,1.04,0.919,0.491,0.608,0.375,0.488,0.766,0.958,0.913,0.971,0.157,0.169,0.196,0.166
BEN,0.54,0.561,0.654,0.534,0.658,0.784,0.979,0.848,0.295,0.301,0.349,0.282,0.718,1.01,0.91,1.09,0.479,0.53,0.577,0.51
CAL-12T,0.305,0.314,0.265,0.351,,0.175,0.531,0.192,0.239,0.339,0.281,0.323,0.665,0.656,0.775,0.544,0.219,0.226,0.282,0.228
COR-L23,0.71,0.818,0.621,0.717,0.539,0.682,0.629,0.796,0.799,0.721,0.768,0.756,0.937,0.957,0.913,1.16,0.187,0.246,0.257,0.241
COR-L 105,0.413,0.505,0.288,0.412,0.667,0.82,0.684,0.817,0.716,0.984,0.517,0.671,0.923,1.02,0.909,1.17,0.373,0.404,0.282,0.418
Calu-6,0.779,,0.939,0.698,0.432,0.384,0.837,0.336,,,,,0.811,,0.985,0.768,,,,
ChaGo-K-1,0.757,0.965,0.432,0.78,0.988,1.1,1.13,1.23,0.497,0.596,0.57,0.545,,,,,0.242,0.231,0.208,0.215
EBC-1,0.256,0.328,0.346,0.344,0.178,0.233,0.181,0.208,,,,,0.828,0.939,0.883,1.03,,,,
EKVX,0.399,0.568,0.362,0.513,0.713,0.9,0.753,0.96,0.667,0.852,0.687,0.778,0.872,1.12,0.875,1.14,0.309,0.41,0.388,0.371
EMC-BAC-2,0.469,0.523,0.414,0.328,0.637,0.551,0.682,0.236,0.295,0.341,0.323,0.273,0.768,0.871,0.831,0.564,0.271,0.269,0.288,0.187
EPLC-272H,0.115,0.0891,0.216,0.0826,0.187,0.131,0.746,0.0674,0.121,,0.274,0.0867,0.624,0.717,0.984,0.229,0.15,,0.292,0.076
H3255,0.472,0.454,0.392,0.39,0.825,0.712,0.743,0.756,0.627,0.582,0.514,0.544,0.81,0.975,0.839,0.893,0.553,0.609,0.676,0.509
